The source of these data is patent US5486525A, “Platelet activating factor antagonists: imidazopyridine indoles” (priority 1994, dated 1996).

Structures can show the parent of a compound that is named as a salt.

T1 sequence (G1TEI7 1-342): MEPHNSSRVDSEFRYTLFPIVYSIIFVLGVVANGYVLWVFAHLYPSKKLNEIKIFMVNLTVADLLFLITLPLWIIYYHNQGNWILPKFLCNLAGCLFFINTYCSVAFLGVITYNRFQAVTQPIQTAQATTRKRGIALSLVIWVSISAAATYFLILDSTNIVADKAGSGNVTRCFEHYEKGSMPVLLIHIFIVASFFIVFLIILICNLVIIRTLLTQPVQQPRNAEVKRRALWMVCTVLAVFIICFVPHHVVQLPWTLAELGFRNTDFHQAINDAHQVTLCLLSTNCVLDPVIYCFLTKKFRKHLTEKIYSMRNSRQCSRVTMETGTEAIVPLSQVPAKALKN

The first assay has as its target T1, PAF receptor (Oryctolagus cuniculus, UniProt G1TEI7).
T1 construct: platelet membranes were prepared by centrifugation and washing; tissue Pel-Freez (Rogers, AR); host or cells: rabbit blood platelets (membranes prepared from citrated whole rabbit blood)
Description: PAF receptor binding assay: inhibition of specific [^3 H]C18 -PAF binding to rabbit platelet membranes.
Settings: not given
A word on the inhibition: it is the change of the read-out against control, counted positive when it falls. The compound `Cc1nc2ccncc2n1CC(=O)c1cn(C(=O)N(C)C)c2cc(-c3ccc(F)cc3)ccc12` [Example 23, 1-N,N-Dimethylcarbamoyl-6-(4-fluorophenyl)-3-[(3H-2-methylimidazo[4.5-c]pyrid-3-yl)methylcarbonyl]indole] came in with an inhibition at 1 µM of 7%.
One may read the Ki as a measure of affinity in units of concentration, obtained from inhibition or displacement. Consider `Cc1nc2cnccc2n1Cc1cccc(C(=O)c2cn(C(=O)N(C)C)c3ccccc23)c1` [Example 18, 1-N,N-Dimethylcarbamoyl-3-{3-[(1H-2-methylimidazo[4.5-c]pyrid-1-yl)methyl]benzoyl}indole], for which the affinity corresponds to a Ki of 323 nM.
`CC(C)c1nc2cnccc2n1Cc1ccc(C(=O)c2cn(C(=O)N(C)C)c3ccccc23)cc1` [Example 31] had an inhibition constant (Ki) of 44 nM.
Take `Cc1nc2cnccc2n1CC(=O)c1cn(C(=O)N(C)C)c2ccccc12` [Example 26, 1-N,N-Dimethylcarbamoyl-3-[(1H-2-methylimidazo[4.5-c]pyrid-1-yl)methylcarbonyl]indole]: at 1 µM the inhibition was 7%.
`CCc1cccc2c1c(C(=O)c1ccc(Cn3c(C)nc4cnccc43)cc1)cn2C(=O)N(C)C` [Example 143] came in with a Ki of 0.9 nM.
The same measure, in the same setting: next, `Cc1nc2cnccc2n1Cc1ccc(C(=O)c2cn(C(=O)N(C)C)c3cc(-c4ccc(F)cc4)ccc23)cc1` [Example 4, 1-N,N-Dimethylcarbamoyl-6-(4-fluorophenyl)-3-{4-[(1H-2-methylimidazo[4.5-c]pyrid-1-yl)methyl]benzoyl}indole]: 2.3 nM.
The same measure, in the same setting: to `COC(=O)c1cccc2c1c(C(=O)c1ccc(Cn3c(C)nc4cnccc43)cc1)cn2CC(=O)C(C)(C)C` [Example 135, 1-(1-Pinacolyl)4-methoxycarbonyl-3-{4-[(1H-2-methylimidazo[4.5-c]pyrid-1-yl)methyl]benzoyl}indole] belongs 1.3 nM.
Regarding `Cc1nc2ncccc2n1Cc1ccc(C(=O)c2cn(C(=O)N(C)C)c3ccccc23)cc1` [Example 28, 1-N,N-Dimethylcarbamoyl-3-{4-[(1H-2-methylimidazo[4.5-b]pyrid-1-yl)methyl]benzoyl}indole], the inhibition constant (Ki) was found to be 87 nM.
Compound `CN(C)C(=O)n1cc(C(=O)c2ccc(Cn3c(C(F)(F)F)nc4cnccc43)cc2)c2ccccc21` [Example 29] displayed an inhibition constant Ki of 494 nM.
Take `Cc1nc2cnccc2n1-c1ccc(C(=O)c2cn(C(=O)N(C)C)c3ccccc23)cc1` [Example 22, 1-N,N-Dimethylcarbamoyl-3-{4-[(1H-2-methylimidazo[4.5-c]pyrid-1-yl)]benzoyl}indole]: the Ki was found to be 146 nM.
For the compound `Cc1nc2cnccc2n1Cc1ccc(C(=O)c2cn(C(=O)N(C)C)c3ccccc23)cc1` [Example 14, 1-N,N-Dimethylcarbamoyl-3-{4-[(1H-2-methylimidazo[4.5-c]pyrid-1-yl)methyl]benzoyl}indole], the affinity corresponds to a Ki of 5 nM.
In turn, `Cc1nc2ccccc2n1Cc1ccc(C(=O)c2cn(C(=O)N(C)C)c3cc(-c4ccc(F)cc4)ccc23)cc1` [Example 2, 1-N,N-Dimethylcarbamoyl-6-(4-fluorophenyl)-3-{4-[(1H-2-methylbenzimidazolyl)methyl]benzoyl}indole] had a Ki of 56 nM.
For `CCOCCn1cc(C(=O)c2ccc(Cn3c(C)nc4cnccc43)cc2)c2c(Cl)cccc21` [Example 138, 1-(2-Ethoxyethyl)-4-chloro-3-{4-[(1H-2-methylimidazo[4.5-c]pyrid-1-yl)methyl]benzoyl}indole], the Ki worked out at 2.2 nM.
The same measure, in the same setting: next, `C#Cc1cccc2c1c(C(=O)c1ccc(Cn3c(C)nc4cnccc43)cc1)cn2C(=O)N(C)C` [Example 107, 1-N,N-Dimethylcarbamoyl-4-ethynyl-3-{4-[(1H-2-methylimidazo[4.5-c]pyrid-1-yl)methyl]benzoyl}indole]: 0.6 nM.
In turn, `Cc1nc2ccncc2n1Cc1cccc(C(=O)c2cn(C(=O)N(C)C)c3ccccc23)c1` [Example 20, 1-N,N-Dimethylcarbamoyl-3-{3-[(3H-2-methylimidazo[4.5-c]pyrid-3-yl)methyl]benzoyl}indole] returned an inhibition at 100 µM of 26%.
`Cc1nc2cnccc2n1CC(=O)c1cn(C(=O)N(C)C)c2cc(-c3ccc(F)cc3)ccc12` [Example 24, 1-N,N-Dimethylcarbamoyl-6-(4-fluorophenyl)-3-[(1H-2-methylimidazo[4.5-c]pyrid-1-yl)methylcarbonyl]indole] showed an inhibition at 1 µM of 6%.
`COC(=O)c1cccc2c1c(C(=O)c1ccc(Cn3c(C)nc4cnccc43)cc1)cn2S(=O)(=O)N(C)C` [Example 131, 1-N,N-Dimethylsulfamoyl-4-methoxycarbonyl-3-{4-[(1H-2-methylimidazo[4.5-c]pyrid-1-yl)methyl]benzoyl}indole] yielded an inhibitory constant (Ki) of 4.7 nM.
The same measure, in the same setting: next, `Cc1nc2cccnc2n1Cc1ccc(C(=O)c2cn(C(=O)N(C)C)c3ccccc23)cc1` [Example 27, 1-N,N-Dimethylcarbamoyl-3-{4-[(3H-2-methylimidazo[4.5-b]pyrid-3-yl)methyl]benzoyl}indole]: 160 nM.
The compound `Cc1nc2ccn(Cc3ccc(C(=O)c4cn(C(=O)N(C)C)c5ccccc45)cc3)cc-2n1` [Example 16, 1-N,N-Dimethylcarbamoyl-3-[4-(5H-2-methylimidazo[4.5-c]pyrid-5-ylmethyl)benzoyl]indole] returned an inhibition at 100 µM of 18%.
For `Cc1nc2cnccc2n1Cc1ccc(C(=O)c2cn(C(=O)N(C)C)c3cccc(C#N)c23)cc1` [Example 150, 1-N,N-Dimethylcarbamoyl-4-cyano-3-{4-[(1H-2-methylimidazo[4.5-c]pyrid-1-yl)methyl]benzoyl}indole hydrochloride], the inhibition constant (Ki) is 40 nM.
Still for that read-out and setting: next, `Cc1cccc2c1c(C(=O)c1ccc(Cn3c(C)nc4cnccc43)cc1)cn2C(=O)N(C)C` [Example 122, 1-N,N-Dimethylcarbamoyl-4-methyl-3-(4-[(1H-2-methylimidazo[4.5-c]pyrid-1-yl)methyl]benzoyl}indole]: 0.8 nM; `Cc1nc2cnccc2n1-c1ccc(C(=O)c2cn(C(=O)N(C)C)c3cc(-c4ccc(F)cc4)ccc23)cc1` [Example 10, 1-N,N-Dimethylcarbamoyl-6-(4-fluorophenyl)-3-[4-(1H-2-methylimidazo[4.5-c]pyrid-1-yl)benzoyl]indole]: 258 nM.
Still for that read-out and setting: next, `CN(C)C(=O)n1cc(C(=O)c2ccc(Cn3cnc4cnccc43)cc2)c2ccccc21` [Example 30]: 342 nM; `COC(=O)c1cccc2c1c(C(=O)c1ccc(Cn3c(C(F)(F)F)nc4ccccc43)cc1)cn2C(=O)N(C)C` [Example 162, 1-N,N-Dimethylcarbamoyl-4-methoxycarbonyl-3-{4-[(1H-2-(trifluoromethyl)benzimidazolyl)methyl]benzoyl}indole]: 14 nM; `Cc1nc2cnccc2n1Cc1ccc(C(=O)c2cn(C(=O)N(C)C)c3cccc(Br)c23)cc1` [Example 102, 1-N,N-Dimethylcarbamoyl-4-bromo-3-{4-[(1H-2-methylimidazo[4.5-c]pyrid-1-yl)methyl]benzoyl}indole]: 10 nM.
The compound `CCc1nc2cnccc2n1Cc1ccc(C(=O)c2cn(C(=O)N(C)C)c3ccccc23)cc1` [Example 33] had an inhibition constant (Ki) of 29 nM.

The same assay, now with this note: Table 1; @ 1.0 μM; read-out: % Inhibition.
Turning to `Cc1nc2ccncc2n1CC(=O)c1cn(C(=O)N(C)C)c2ccccc12` [Example 25, 1-N,N-Dimethylcarbamoyl-3-[(3H-2-methylimidazo[4.5-c]pyrid-3-yl)methylcarbonyl]indole], the inhibition at 1 µM was 14%.

The same assay, now with this note: Table 1; rabbit platelet membranes, 0.6 nM [^3 H]C18 -PAF, 60 minutes at room temperature; Ki by Cheng and Prusoff.
`COC(=O)c1cccc2c1c(C(=O)c1ccc(Cn3c(C)nc4c(Cl)nccc43)cc1)cn2C(=O)N(C)C` [Example 174, 1-N,N-Dimethylcarbamoyl-4-methoxycarbonyl-3-{4-[(4-chloro-1H-2-methylimidazo[4.5-c]pyrid-1-yl)methyl]benzoyl}indole] came in with a Ki of 4 nM.

The assay is the same for the next values; noted with them: Table 1; rabbit platelet membranes, 0.6 nM [^3 H]C18 -PAF, 60 minutes at room temperature; Ki by Cheng and Prusoff; read-out: Ki.
Take `Cc1nc2cnccc2n1Cc1cccc(C(=O)c2c[nH]c3ccccc23)c1` [Example 17, 3-{3-[(1H-2-Methylimidazo[4.5-c]pyrid-1-yl)methyl]benzoyl}indole]: the inhibitory constant (Ki) is 422 nM.
Same read-out and setting: to `COC(=O)c1cccc2c1c(C(=O)CCCCCn1c(C)nc3cnccc31)cn2C(=O)N(C)C` [Example 126] belongs 62 nM; to `Cc1nc2ccncc2n1Cc1cccc(C(=O)c2c[nH]c3ccccc23)c1` [Example 19, 3-{3-[(3H-2-Methylimidazo[4.5-c]pyrid-3-yl)methyl]benzoyl}indole], 280 nM.
As to `Cc1nc2cnccc2n1Cc1ccc(C(=O)c2c[nH]c3ccccc23)cc1` [Example 13, 3-{4-[(1H-2-Methylimidazo[4.5-c]pyrid-1-yl)methyl]benzoyl}indole], the inhibition constant (Ki) is 150 nM.
Same read-out and setting: to `Cc1nc2cnccc2n1Cc1cccc(C(=O)c2c[nH]c3cc(-c4ccc(F)cc4)ccc23)c1` [Example 11, 6-(4-Fluorophenyl)-3-{3-[(1H-2-methylimidazo[4.5-c]pyrid-1-yl)methyl]benzoyl}indole] belongs 86 nM; to `Cc1nc2cnccc2n1Cc1ccc(C(=O)c2c[nH]c3cc(-c4ccc(F)cc4)ccc23)cc1` [Example 3, 6-(4-Fluorophenyl)-3-{4-[(1H-2-methylimidazo[4.5-c]pyrid-1-yl)methyl]benzoyl}indole], 75 nM.
The same measure, in the same setting: next, `Cc1nc2ccncc2n1Cc1ccc(C(=O)c2c[nH]c3cc(-c4ccc(F)cc4)ccc23)cc1` [Example 6, 6-(4-Fluorophenyl)-3-{4-[(3H-2-methylimidazo[4.5-c]pyrid-3-yl)methyl]benzoyl}indole]: 140 nM.
As to “1-N,N-Dimethylcarbamoyl-4-chloro-3-{4-[(1H-2-methyl-5- and 6-chlorobenzimidazoyl)methyl]benzoyl}indole [Example 159]”, the Ki was determined as 9 nM.
On to `Cc1nc2cnccc2n1-c1ccc(C(=O)c2c[nH]c3cc(-c4ccc(F)cc4)ccc23)cc1` [Example 9, 6-(4-Fluorophenyl)-3-[4-(1H-2-methylimidazo[4.5-c]pyrid-1-yl)benzoyl]indole], for which the Ki was 60 nM.
For `COC(=O)c1ccc(C(=O)OC)c2c(C(=O)c3ccc(Cn4c(C)nc5cnccc54)cc3)c[nH]c12` [Example 90, 4,7-Dimethoxycarbonyl-3-{4-[(1H-2-methylimidazo[4,5-c]pyrid-1-yl)methyl]benzoyl}indole], the Ki stood at 2.9 nM.
